From ChEMBL document CHEMBL5465560, “Selectivity Literature for EUbOPEN Chemogenomic Library” (2024)

What was measured:
[1] = molecular target: Vascular endothelial growth factor receptor 2 (Homo sapiens, UniProt P35968); test: Selectivity interaction (KinomeScan (DiscoverX)) EUB0000595a KDR; details: at 10 µM
[2] = molecular target: T1, 3-phosphoinositide-dependent protein kinase 1 (Homo sapiens) (UniProt O15530); test: Selectivity interaction (KinomeScan (DiscoverX)) EUB0000695a PDPK1; details: at 100 nM
T1 sequence (whole entry): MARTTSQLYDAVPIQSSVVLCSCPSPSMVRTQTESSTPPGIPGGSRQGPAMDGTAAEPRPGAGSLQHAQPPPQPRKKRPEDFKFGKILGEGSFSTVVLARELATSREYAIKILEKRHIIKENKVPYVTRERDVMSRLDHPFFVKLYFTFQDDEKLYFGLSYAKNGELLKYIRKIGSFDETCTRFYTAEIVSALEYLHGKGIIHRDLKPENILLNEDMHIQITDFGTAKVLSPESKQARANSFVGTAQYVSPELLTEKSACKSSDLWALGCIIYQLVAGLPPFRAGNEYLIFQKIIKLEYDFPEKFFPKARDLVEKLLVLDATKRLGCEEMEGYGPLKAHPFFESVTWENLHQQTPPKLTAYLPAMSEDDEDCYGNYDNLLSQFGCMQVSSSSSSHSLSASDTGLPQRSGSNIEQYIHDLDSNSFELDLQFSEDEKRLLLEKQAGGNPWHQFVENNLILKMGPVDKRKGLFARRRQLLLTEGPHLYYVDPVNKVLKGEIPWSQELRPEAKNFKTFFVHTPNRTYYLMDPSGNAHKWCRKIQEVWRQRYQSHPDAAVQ

[3] = molecular target: T2, Phosphorylase b kinase gamma catalytic chain, liver/testis isoform (Homo sapiens) (UniProt P15735); test: Selectivity interaction (KinomeScan (DiscoverX)) EUB0001079a PHKG2; details: at 1 µM
T2 sequence (whole entry): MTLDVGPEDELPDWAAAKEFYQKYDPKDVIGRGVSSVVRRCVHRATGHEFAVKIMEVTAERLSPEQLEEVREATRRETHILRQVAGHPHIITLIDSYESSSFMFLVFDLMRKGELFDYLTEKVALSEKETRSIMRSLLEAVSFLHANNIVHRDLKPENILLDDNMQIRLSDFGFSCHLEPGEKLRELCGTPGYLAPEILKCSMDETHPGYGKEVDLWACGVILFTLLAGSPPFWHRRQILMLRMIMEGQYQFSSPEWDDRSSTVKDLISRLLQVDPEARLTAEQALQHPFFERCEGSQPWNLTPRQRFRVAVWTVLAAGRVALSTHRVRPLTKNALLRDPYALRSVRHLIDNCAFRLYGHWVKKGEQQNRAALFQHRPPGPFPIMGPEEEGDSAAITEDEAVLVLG

[4] = molecular target: T3, Receptor-type tyrosine-protein kinase FLT3 (Homo sapiens, UniProt P36888); test: Selectivity interaction (Kinase panel (Invitrogen, enzymatic assay)) EUB0000162b FLT3
T3 sequence (P36888 whole entry): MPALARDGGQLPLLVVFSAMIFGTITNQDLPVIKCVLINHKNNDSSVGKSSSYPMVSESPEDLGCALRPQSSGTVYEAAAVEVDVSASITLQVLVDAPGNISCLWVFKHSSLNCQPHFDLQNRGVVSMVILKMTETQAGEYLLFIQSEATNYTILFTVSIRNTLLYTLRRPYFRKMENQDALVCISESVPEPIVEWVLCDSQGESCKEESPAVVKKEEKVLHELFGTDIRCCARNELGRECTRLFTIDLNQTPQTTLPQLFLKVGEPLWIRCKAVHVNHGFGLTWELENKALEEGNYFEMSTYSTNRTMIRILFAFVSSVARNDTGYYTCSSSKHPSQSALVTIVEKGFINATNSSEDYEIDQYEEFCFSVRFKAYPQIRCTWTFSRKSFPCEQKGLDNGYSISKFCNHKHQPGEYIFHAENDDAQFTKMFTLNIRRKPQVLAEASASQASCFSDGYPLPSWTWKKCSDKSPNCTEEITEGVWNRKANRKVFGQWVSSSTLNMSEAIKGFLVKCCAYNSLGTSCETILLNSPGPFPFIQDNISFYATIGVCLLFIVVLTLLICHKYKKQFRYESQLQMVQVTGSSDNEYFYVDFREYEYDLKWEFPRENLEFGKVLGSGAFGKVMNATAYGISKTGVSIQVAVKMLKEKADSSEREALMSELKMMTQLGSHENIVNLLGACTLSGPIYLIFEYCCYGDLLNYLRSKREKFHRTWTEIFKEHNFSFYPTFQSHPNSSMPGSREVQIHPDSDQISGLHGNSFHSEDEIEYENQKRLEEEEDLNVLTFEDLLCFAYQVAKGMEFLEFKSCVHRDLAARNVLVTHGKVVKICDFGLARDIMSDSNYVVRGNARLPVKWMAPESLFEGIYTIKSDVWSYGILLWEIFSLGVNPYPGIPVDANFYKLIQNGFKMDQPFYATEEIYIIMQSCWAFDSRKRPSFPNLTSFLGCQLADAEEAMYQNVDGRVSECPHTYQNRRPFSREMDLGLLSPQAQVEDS

[5] = molecular target: NT-3 growth factor receptor (Homo sapiens, UniProt Q16288); test: Selectivity interaction (KinomeScan (DiscoverX)) EUB0001049a NTRK3; details: at 1 µM
[6] = molecular target: TRAF2 and NCK-interacting protein kinase (Homo sapiens) (UniProt Q9UKE5); test: Selectivity interaction (KinomeScan (DiscoverX)) EUB0001049a TNIK; details: at 1 µM
[7] = molecular target: Myosin light chain kinase 2, skeletal/cardiac muscle (Homo sapiens) (UniProt Q9H1R3); test: Selectivity interaction (KinomeScan (DiscoverX)) EUB0001049a MYLK2; details: at 1 µM
[8] = molecular target: Casein kinase I isoform alpha (Homo sapiens, UniProt P48729); test: Selectivity interaction (ProQinase) EUB0000171b CSNK1A1
[9] = molecular target: Cyclin-dependent kinase 2 (Homo sapiens, UniProt P24941); test: Selectivity interaction (KinomeScan (DiscoverX)) EUB0001619a CDK2; details: at 1 µM
[10] = molecular target: Serine/threonine-protein kinase PLK1 (Homo sapiens, UniProt P53350); test: Selectivity interaction (ActivX KiNativ screen (kinase selectivity in THP-1 cell lysates)) EUB0000639a PLK1; format: subcellular; details: lysate, at 1 µM
[11] = molecular target: [Pyruvate dehydrogenase (acetyl-transferring)] kinase isozyme 1, mitochondrial (Homo sapiens, UniProt Q15118); test: Selectivity interaction (ActivX KiNativ screen (kinase selectivity in THP-1 cell lysates)) EUB0000639a PDK1; format: subcellular; details: lysate
[12] = molecular target: Rho-associated protein kinase 1 (Homo sapiens) (UniProt Q13464); test: Selectivity interaction (KinomeScan (DiscoverX)) EUB0000092b ROCK1; details: at 10 µM
[13] = molecular target: Serine/threonine-protein kinase 38 (Homo sapiens) (UniProt Q15208); test: Selectivity interaction (KinomeScan (DiscoverX)) EUB0000092b STK38; details: at 10 µM
Serine/threonine-protein kinase 38 (Homo sapiens), sequence (Q15208 2-465 limits assumed): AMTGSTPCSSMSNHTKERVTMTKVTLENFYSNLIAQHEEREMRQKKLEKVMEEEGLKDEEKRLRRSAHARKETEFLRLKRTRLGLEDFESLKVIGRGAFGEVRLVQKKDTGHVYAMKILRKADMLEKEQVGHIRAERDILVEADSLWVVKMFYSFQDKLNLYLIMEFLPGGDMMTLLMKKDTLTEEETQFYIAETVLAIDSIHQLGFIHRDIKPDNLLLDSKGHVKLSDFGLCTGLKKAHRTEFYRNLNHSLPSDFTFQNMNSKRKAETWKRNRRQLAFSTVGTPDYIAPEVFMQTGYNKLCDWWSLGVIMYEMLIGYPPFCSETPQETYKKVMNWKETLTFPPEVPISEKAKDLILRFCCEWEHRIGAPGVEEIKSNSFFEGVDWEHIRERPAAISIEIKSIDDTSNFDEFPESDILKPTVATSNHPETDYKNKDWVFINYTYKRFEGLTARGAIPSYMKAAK

Casein kinase I isoform alpha, sequence (P48729 2-337 limits assumed): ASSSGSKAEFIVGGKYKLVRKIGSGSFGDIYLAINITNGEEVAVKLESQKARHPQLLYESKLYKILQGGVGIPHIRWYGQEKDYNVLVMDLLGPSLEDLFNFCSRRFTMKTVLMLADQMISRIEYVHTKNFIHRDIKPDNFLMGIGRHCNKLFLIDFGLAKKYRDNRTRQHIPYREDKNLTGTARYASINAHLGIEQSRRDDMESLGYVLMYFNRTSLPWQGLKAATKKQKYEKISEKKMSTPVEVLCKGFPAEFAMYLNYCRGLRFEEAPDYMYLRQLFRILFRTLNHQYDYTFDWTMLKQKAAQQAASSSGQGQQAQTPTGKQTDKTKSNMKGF
Vascular endothelial growth factor receptor 2, sequence (P35968 whole entry): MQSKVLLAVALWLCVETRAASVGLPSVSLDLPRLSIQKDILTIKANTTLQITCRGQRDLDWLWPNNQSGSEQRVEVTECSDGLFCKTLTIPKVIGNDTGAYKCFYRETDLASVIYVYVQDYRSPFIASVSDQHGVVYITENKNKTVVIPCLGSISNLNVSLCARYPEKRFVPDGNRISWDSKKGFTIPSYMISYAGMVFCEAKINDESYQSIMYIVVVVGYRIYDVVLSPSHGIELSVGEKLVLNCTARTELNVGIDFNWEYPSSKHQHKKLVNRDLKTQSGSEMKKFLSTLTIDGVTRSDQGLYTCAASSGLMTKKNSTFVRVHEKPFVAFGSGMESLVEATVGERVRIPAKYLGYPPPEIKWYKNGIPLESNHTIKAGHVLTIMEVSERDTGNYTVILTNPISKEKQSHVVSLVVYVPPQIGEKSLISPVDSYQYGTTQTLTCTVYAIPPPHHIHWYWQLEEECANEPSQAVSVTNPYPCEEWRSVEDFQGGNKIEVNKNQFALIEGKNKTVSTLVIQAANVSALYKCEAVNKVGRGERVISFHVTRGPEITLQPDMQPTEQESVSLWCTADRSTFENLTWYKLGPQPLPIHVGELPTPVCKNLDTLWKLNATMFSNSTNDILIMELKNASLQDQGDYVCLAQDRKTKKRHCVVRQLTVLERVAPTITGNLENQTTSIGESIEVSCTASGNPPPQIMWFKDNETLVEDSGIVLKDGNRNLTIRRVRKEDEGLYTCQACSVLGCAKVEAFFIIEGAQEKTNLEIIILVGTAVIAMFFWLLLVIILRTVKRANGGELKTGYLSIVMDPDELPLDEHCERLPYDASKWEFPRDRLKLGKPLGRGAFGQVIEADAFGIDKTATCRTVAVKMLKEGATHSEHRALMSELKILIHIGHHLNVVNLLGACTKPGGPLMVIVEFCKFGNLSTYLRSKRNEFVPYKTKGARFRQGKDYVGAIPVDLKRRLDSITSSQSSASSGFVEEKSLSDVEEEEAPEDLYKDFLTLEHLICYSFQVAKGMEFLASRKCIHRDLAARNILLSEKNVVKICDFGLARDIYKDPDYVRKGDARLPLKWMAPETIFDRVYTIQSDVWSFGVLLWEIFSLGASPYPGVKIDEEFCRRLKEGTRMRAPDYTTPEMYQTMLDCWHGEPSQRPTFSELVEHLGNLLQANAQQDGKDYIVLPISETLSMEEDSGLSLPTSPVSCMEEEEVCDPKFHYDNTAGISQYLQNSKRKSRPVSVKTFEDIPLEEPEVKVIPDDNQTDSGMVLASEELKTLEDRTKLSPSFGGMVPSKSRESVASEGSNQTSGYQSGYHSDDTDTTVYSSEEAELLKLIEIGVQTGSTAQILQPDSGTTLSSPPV
Myosin light chain kinase 2, skeletal/cardiac muscle (Homo sapiens), sequence (Q9H1R3 whole entry, canonical isoform): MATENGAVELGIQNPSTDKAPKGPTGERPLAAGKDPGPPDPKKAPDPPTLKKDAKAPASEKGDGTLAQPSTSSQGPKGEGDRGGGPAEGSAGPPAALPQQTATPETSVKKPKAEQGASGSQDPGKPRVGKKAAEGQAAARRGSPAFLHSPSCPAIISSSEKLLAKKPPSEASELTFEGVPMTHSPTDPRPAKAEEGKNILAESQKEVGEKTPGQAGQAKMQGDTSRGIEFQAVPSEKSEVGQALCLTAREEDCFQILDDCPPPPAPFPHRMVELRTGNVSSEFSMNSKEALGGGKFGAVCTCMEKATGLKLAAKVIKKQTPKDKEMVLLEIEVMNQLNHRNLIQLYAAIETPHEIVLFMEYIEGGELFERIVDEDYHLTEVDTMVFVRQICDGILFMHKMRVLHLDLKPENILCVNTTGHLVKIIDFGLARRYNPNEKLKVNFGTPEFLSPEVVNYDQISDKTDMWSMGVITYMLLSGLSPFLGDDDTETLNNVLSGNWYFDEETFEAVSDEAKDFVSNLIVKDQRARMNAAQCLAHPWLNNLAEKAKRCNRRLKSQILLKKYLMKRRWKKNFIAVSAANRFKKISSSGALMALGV
NT-3 growth factor receptor, sequence (Q16288 32-839 limits assumed): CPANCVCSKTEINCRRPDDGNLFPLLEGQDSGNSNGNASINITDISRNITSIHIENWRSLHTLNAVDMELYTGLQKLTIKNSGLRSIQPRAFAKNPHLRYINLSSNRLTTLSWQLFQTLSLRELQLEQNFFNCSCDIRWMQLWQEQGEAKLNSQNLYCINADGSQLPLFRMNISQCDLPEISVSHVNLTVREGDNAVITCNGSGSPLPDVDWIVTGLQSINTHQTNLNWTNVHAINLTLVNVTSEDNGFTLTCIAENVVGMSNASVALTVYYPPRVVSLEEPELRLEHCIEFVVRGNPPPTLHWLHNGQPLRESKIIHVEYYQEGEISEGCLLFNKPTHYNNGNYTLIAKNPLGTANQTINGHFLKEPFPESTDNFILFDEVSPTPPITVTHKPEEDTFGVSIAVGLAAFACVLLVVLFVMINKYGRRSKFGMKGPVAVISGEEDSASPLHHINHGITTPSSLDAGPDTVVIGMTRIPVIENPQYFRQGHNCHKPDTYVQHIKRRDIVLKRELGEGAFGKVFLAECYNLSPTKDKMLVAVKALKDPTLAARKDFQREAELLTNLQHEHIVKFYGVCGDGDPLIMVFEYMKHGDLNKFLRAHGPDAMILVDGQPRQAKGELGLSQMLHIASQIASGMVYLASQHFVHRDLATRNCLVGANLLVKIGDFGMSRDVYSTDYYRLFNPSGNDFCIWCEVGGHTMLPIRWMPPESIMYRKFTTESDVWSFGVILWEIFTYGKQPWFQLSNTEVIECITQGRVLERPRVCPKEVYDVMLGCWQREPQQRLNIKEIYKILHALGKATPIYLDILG
Serine/threonine-protein kinase PLK1, sequence (P53350 whole entry): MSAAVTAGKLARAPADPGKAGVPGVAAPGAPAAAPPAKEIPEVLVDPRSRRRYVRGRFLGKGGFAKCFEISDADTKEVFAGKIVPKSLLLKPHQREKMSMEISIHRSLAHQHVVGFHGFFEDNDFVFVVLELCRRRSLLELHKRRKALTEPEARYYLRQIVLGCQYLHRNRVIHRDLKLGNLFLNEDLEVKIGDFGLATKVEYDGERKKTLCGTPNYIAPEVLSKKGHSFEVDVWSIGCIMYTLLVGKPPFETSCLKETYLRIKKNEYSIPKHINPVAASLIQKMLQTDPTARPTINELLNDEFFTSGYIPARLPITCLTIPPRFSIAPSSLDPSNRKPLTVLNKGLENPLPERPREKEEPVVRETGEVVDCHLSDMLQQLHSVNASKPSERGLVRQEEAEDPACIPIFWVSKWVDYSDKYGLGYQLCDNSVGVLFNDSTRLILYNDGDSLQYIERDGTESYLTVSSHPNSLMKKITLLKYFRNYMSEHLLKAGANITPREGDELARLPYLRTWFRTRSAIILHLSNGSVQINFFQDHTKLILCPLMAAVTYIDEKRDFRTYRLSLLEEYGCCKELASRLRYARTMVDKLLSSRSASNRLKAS

## COCC(=O)NC/C=C/c1ccc2ncnc(Nc3ccc(Oc4ccc(C)nc4)c(C)c3)c2c1 [CP-724714]
[1]
  % of control: 100%

## Cc1cc(F)c(C(=O)Nc2cccc(-c3nncn3C(C)C)n2)cc1-n1cnc(C2CC2)c1
[2]
  % of control: 82%

## Nc1cnc(N2CCc3cc(S(=O)(=O)Nc4c(F)cc(Cl)cc4F)cc(N4CCCC4=O)c32)nc1 [TP-020n]
[3]
  % of control: 100%

## CN(C)C(=O)Cn1cc(-c2ccc(-c3cncc4ccccc34)cc2)cn1
[4]
  IC50: 1360 nM

## COc1cc(Nc2nc(C)cc(-c3cnn4nc(OC)ccc34)n2)cc(C(F)(F)F)c1
[5]
  % of control: 84%
[6]
  % of control: 74%
[7]
  % of control: 100%

## C=CC(=O)Nc1cccc(C(=O)Nc2ccc(Nc3cc(-c4[nH]c(SC)nc4C)ccn3)cc2)c1
[8]; at 1 µM
  % of control: 70%
[8]; at 5 µM
  % of control: 38%

## N#Cc1cccc(-c2c[nH]c3ncnc(N4CCOCC4)c23)c1
[9]
  % of control: 89%

## CC[C@@H]1[C@H](F)C(=O)N[C@@H]1COc1nccc2cc(C(N)=O)c(OC)cc12 [ZIMLOVISERTIB]
[10]
  % of inhibition: -2.8%
[11]; at 0.01 µM
  % of inhibition: 1.3%
[11]; at 0.04 µM
  % of inhibition: 12.1%
[11]; at 0.2 µM
  % of inhibition: 12.1%
[11]; at 1 µM
  % of inhibition: 12.5%
[11]; at 5 µM
  % of inhibition: 28.1%

## CCC(=O)N1CCN(c2ccc(-n3c(=O)ccc4cnc5ccc(-c6cnc7ccccc7c6)cc5c43)cc2C(F)(F)F)CC1
[12]
  % of control: 53%
[13]
  % of control: 100%
